Here are results for twelve compounds from PubChem BioAssay (NCI).

What all share (test): NCI-60 cell line screen, 48 h
Experiment [1] concerns CAKI-1 renal.
The test system of experiment [2] is HOP-92 NSCLC.
Experiment [3] has as its system K-562 leukemia.
For experiment [4], the system named is KM12 colon.
Experiment [5] has as its system LOX IMVI melanoma.
The subject of experiment [6] is M14 melanoma.
Experiment [7] relates to RXF 393 renal.
Experiment [8] concerns SR leukemia.
Experiment [9] deals with SW-620 colon.
Experiment [10] deals with UO-31 renal.

The structures appear in SMILES notation. Where “and” joins values, the source holds several entries; their conditions need not be identical. Equal entries are not always repeated.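 Growth conditions: 96-well plates. Treatment: test compound, 48 hours, 5 concentrations. Analysis: linear interpolation between bracketing concentrations; unreached endpoints set to highest concentration. GI50 = concentration required for 50% inhibition of growth. TGI: total growth inhibition.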 Some results are limits rather than exact numbers.

Turning to `Nc1c(C(=O)c2cccc(C(O)(CO)CO)c2)cnn1-c1ccc(F)cc1`, the GI50 in [1], in [2], in experiment [3], in experiment [4], in experiment [5] and in experiment [6] was greater than 25 µM throughout. In addition, the GI50 in experiment [7], in experiment [8], in [9] and in experiment [10] was greater than 25 µM each time. Further, the TGI in [1], in experiment [2], in [3], in experiment [4], in [5] and in experiment [6] was greater than 25 µM each time. Further, the TGI in [7], in experiment [8], in [9] and in [10] was greater than 25 µM in each case.
For the compound `COc1ccc(NC(=O)COc2ccccc2)c(C(N)=O)c1`, the GI50 in experiment [1] was 1.09 µM; in experiment [2], 2.87 µM; in experiment [3] it was 0.348 µM; in experiment [4], 0.52 µM; in [5], 3.14 µM; in experiment [6], 0.499 µM. Moreover, the GI50 is 1.9 µM in [7], 0.466 µM in [8], 0.511 µM in experiment [9] and 6.99 µM in [10]. In addition, the TGI was greater than 100 µM in [1]; greater than 78 µM in experiment [2]; greater than 100 µM in [3]; greater than 50.3 µM in [4]; greater than 100 µM in experiment [5]; greater than 100 µM in [6]. For the same compound, the TGI in experiment [7] is 13.5 µM; in [8] it was greater than 50.2 µM; in experiment [9], greater than 100 µM; in [10], greater than 100 µM.
Turning to `C[C@]12CC/C(=N\O)C[C@@H]1CC[C@@H]1[C@@H]2CC[C@]2(C)/C(=N/O)CC[C@@H]12`, the GI50 is 25.4 µM in experiment [1]; greater than 100 µM in experiment [2]; 40.9 µM in experiment [3]; 20.9 µM in [4]; 21.3 µM in experiment [5]; 23.7 µM in [6]. Besides, the GI50 is 34.1 µM in experiment [7], 35 µM in [8], 57.1 µM in experiment [9] and 31.5 µM in experiment [10]. Further, the TGI was 86.2 µM in [1]; greater than 100 µM in [2]; greater than 100 µM in [3]; 47.4 µM in [4]; 50.7 µM in experiment [5]; 55.2 µM in experiment [6]. Also, the TGI is 71.4 µM in experiment [7], greater than 100 µM in experiment [8], greater than 100 µM in experiment [9] and 78.4 µM in experiment [10].
Consider `CC[C@]12C=CCN3CC[C@@]4(c5ccc(OC)cc5N(C)[C@H]4[C@@](O)(C(=O)OC)[C@@H]1OC(=O)CCCC[P+](c1ccccc1)(c1ccccc1)c1ccccc1)[C@@H]32`, for which the GI50 in experiment [1] is 3.61 µM; in [2] it was 0.238 µM; in experiment [3] it was 0.789 µM; in experiment [4] it was 0.44 µM; in experiment [5] it was 1.11 µM; in experiment [6], 1.45 µM. The GI50 is 0.635 µM in experiment [7], 0.446 µM in [8], 1.14 µM in [9] and 12.8 µM in experiment [10]. Further, the TGI in experiment [1] is 13.7 µM; in experiment [2], 1.35 µM; in experiment [3] it was 11.4 µM; in experiment [4], 1.85 µM; in experiment [5], 9.03 µM; in experiment [6], 4.13 µM. The TGI in experiment [7] was 2.72 µM; in experiment [8] it was 4.14 µM; in experiment [9], 12.6 µM; in experiment [10], 26.4 µM.
`CCCCCCCC(=O)SCC/C=C/[C@@H]1CC(=O)NCc2cccc(n2)C2=N[C@@](C)(CS2)C(=O)N[C@@H](C(C)C)C(=O)O1`: the GI50 in experiment [1] was 0.174 µM; in experiment [2], 0.0841 µM; in experiment [3], 0.0829 µM; in experiment [4], 0.0719 µM; in experiment [5], 0.0501 µM; in experiment [6] it was 0.0348 µM. Moreover, the GI50 in [7] is 0.0534 µM; in [8] it was 0.0623 µM; in experiment [9], 0.0921 µM; in experiment [10], 0.0647 µM. The TGI in experiment [2] is 0.52 µM; in [3], greater than 33.3 µM; in experiment [4], 5.95 µM; in [5] it was 0.193 µM; in experiment [6], greater than 33.3 µM; in [7], 0.207 µM. Further, the TGI in experiment [8] is greater than 33.3 µM; in experiment [9], 3.72 µM; in experiment [10], 1.03 µM.
Take `NNC(=O)C(O)C(O)C(O)CO` (configuration not stated): the TGI in [1], in [2], in [3], in experiment [4], in [5] and in experiment [6] was greater than 100 µM in each case. The TGI in experiment [7], in experiment [8], in experiment [9] and in experiment [10] was greater than 100 µM each time.
On to `O=C1/C(=N/N=C(c2ccccc2)c2ccccc2)c2ccccc2-c2ccccc21`, for which the TGI in experiment [1] was greater than 100 µM; in experiment [2], 87.8 µM; in experiment [3] it was greater than 100 µM; in experiment [4] it was greater than 100 µM; in experiment [5], greater than 100 µM; in experiment [6], greater than 100 µM. Further, the TGI in experiment [7], in [8], in experiment [9] and in experiment [10] was greater than 100 µM each time.
On to `COc1ccc(C2CC(c3ccc4ccccc4c3)=NN2/C=C2\SC(=S)N(NC(=O)Cc3ccccc3Nc3c(Cl)cccc3Cl)C2=O)cc1` (configuration not stated), for which the GI50 in experiment [1] was 0.392 µM; in experiment [2], 1.27 µM; in [3] it was 0.402 µM; in [4] it was 0.37 µM; in experiment [5], 0.556 µM; in experiment [6] it was 0.4 µM. The GI50 in [7] was 0.282 µM; in experiment [8], 0.309 µM; in experiment [9], 0.416 µM; in experiment [10], 0.354 µM. Also, the TGI in [1] was greater than 40 µM; in experiment [2] it was greater than 53.4 µM; in [3], greater than 100 µM; in [4], greater than 33.5 µM; in [5], greater than 54 µM; in experiment [6], 5.4 µM. The TGI in [7] was 1.16 µM; in experiment [8] it was greater than 100 µM; in experiment [9], greater than 52.7 µM.
For the compound `CC[C@@]1(O)C(=O)OCc2c1cc1n(c2=O)Cc2cc3c([N+](=O)[O-])c(O)ccc3nc2-1`, the GI50 was 0.0864 µM in experiment [1]; 1.26 µM in experiment [2]; 0.84 µM in experiment [3]; 1.68 µM in experiment [4]; 0.0552 µM in [5]; 0.188 µM in experiment [6]. In addition, the GI50 was 0.328 µM in experiment [7], 0.416 µM in [9] and 0.303 µM in experiment [10]. In addition, the TGI is 8.47 µM in experiment [1]; 6.56 µM in [2]; greater than 100 µM in experiment [3]; 20.9 µM in experiment [4]; 0.91 µM in experiment [5]; 2.47 µM in experiment [6]. In addition, the TGI was 2.05 µM in [7], less than 0.0215 µM in [8], 33.8 µM in [9] and 2.3 µM in experiment [10].
In the case of `COc1cc(/C=C/C(=O)c2ccc(F)cc2)ccc1OCCCCOc1cc2c(cc1OC)C(=O)N1CCCC1C=N2` (configuration not stated), the GI50 is 1.12 µM in experiment [1]; 0.62 µM in experiment [3]; 0.762 µM in [4]; 0.472 µM in [5]; 2.11 µM in [6]; 1.07 µM in experiment [7]. The GI50 in [8] is 0.188 µM; in experiment [9], 0.481 µM; in experiment [10], 0.891 µM. Moreover, the TGI amounted to 25.6 µM in experiment [1]; 0.673 µM in experiment [2]; 4.05 µM in experiment [3]; 7.71 µM in [4]; 1.11 µM in experiment [5]; 4.08 µM in experiment [6]. Moreover, the results for the TGI in experiment [7] and in experiment [8] were 9.21 µM and 0.841 µM, respectively.
As to `O=c1[nH]ccc2nc(N3CCC(O)CC3)nc(Nc3ccc(N4CCOCC4)cc3)c12`, the GI50 in [1] is 0.367 µM; in experiment [2], 0.566 µM; in [3] it was greater than 100 µM; in [4] it was 0.055 µM; in [5], 1.38 µM; in experiment [6] it was 0.351 µM. For the same compound, the GI50 in experiment [7] is 1.74 µM; in experiment [8], 3.14 µM; in experiment [9], 1.75 µM; in [10], 0.374 µM. The TGI was greater than 100 µM in [1]; 5.02 µM in experiment [2]; greater than 100 µM in [3]; greater than 100 µM in [4]; greater than 100 µM in experiment [5]; greater than 100 µM in experiment [6]. In addition, the TGI in [7] is 7.5 µM; in experiment [8], greater than 100 µM; in [9], greater than 100 µM; in experiment [10], greater than 100 µM.
As for `CC1OC(OC23C(=O)CC(C)(O)CC2(O)C=CC2=C3C(=O)c3ccc(C4CC(OC5CCC(OC6CC(O)C(O)C(C)O6)C(C)O5)C(O)C(C)O4)c(O)c3C2=O)CCC1O` (configuration not stated), the TGI in experiment [1] was 33.5 µM and 34.5 µM; in experiment [2] it was 28.7 µM and 14.8 µM; in [3] it was greater than 100 µM; in [4], 31.2 µM and 27.5 µM; in [5], 27.5 µM and 19.7 µM; in experiment [6], 32.3 µM and 26.7 µM. The TGI in experiment [7] was 26.9 µM and 19.2 µM; in experiment [8], greater than 100 µM; in experiment [9], 15.7 µM and 10.9 µM; in experiment [10] it was 32.2 µM and 32.4 µM. Besides, the GI50 was 15.2 µM and 4.81 µM in [2]; 13.1 µM and 6.26 µM in [5]; 13.8 µM and 5.87 µM in experiment [7].
